These results are taken from patent US11028075B2, “Therapeutic compounds and methods of use thereof” (GENENTECH, INC., priority 2018, dated 2021).

By IC50 is commonly meant the concentration needed to halve the response being measured.

Counter-ions that a name gives are not always drawn.

Assay [1] has as its target T1, hNav1.7 (Homo sapiens (Human), UniProt Q15858). Put plainly: Tritiated compound binding to membranes from cells heterologously expressing hNav1.7 and the β1 subunit (Nav1.7 LBA). The settings on record: competitive binding vs [3H]compound, membranes with hNav1.7 and β1 subunit; read-out: Nav1.7 LBA EVO IC50. How it is done:
Example 93A. Tritiated Compound Binding to Membranes Isolated from Cells that Heterologously Express hNav1.7 and the β1 Subunit
Preparation of membranes containing recombinantly expressed sodium channels: Frozen recombinant cell pellets are thawed on ice and diluted to 4 times the cell pellet weight with ice cold 50 mM Tris HCl, pH 7.4 buffer. The cell suspensions are homogenized on ice using a motorized glass dounce homogeniser. Homogenates are further diluted 8.4 times with ice cold 50 mM Tris HCl, pH 7.4 buffer and then centrifuged at 200×g at 4° C. for 15 minutes. The supernatants are collected and centrifuged at 10000×g at 4° C. for 50 min. The pellets are then re-suspended in 100 mM NaCl, 20 mM Tris HCl, pH 7.4 buffer containing 1% v/v protease inhibitors (Calbiochem) and re-homogenized on ice. The homogenized membranes are then processed through a syringe equipped with a 26 gauge needle. Protein concentrations arer determined by Bradford Assay and the membranes are stored at −80° C.
Saturation experiments. A competitive NaV1.7 inhibitor having a methyl group is tritiated. Three tritiums are incorporated in place of methyl hydrogens to generate [^3H]compound. Binding of this radioligand is performed in 5 mL borosilicate glass test tubes at room temperature. Binding is initiated by adding membranes to increasing concentrations of [^3H]compound in 100 mM NaCl, 20 mM Tris HCl, pH 7.4 buffer containing 0.01% w/v bovine serum albumin (BSA) for 18 h. Non-specific binding is determined in the presence of 1 μM unlabeled compound. After 18 h, the reactants are filtered through GF/C glass fiber filters presoaked in 0.5% w/v polyethylene imine. Filters are washed with 15 mL ice cold 100 mM NaCl, 20 mM Tris HCl, pH7.4 buffer containing 0.25% BSA to separate bound from free ligand. [^3H]compound bound to filters is quantified by liquid scintillation counting.
Binding reactions are performed in 96-well polypropylene plates at room temperature for 18 h. In 360 μL, membranes are incubated with […] [^3H]compound and increasing concentrations of Test Compound. Non-specific binding is defined in the presence of 1 μM unlabeled compound. Reactions are transferred and filtered through 96-well glass fiber/C filter plates presoaked with 0.5% polyethylene imine. The filtered reactions are washed 5 times with 200 μL ice cold buffer containing 0.25% BSA. Bound radioactivity is determined by liquid scintillation counting.
Data Analysis: For saturation experiments, non-specific binding is subtracted from total binding to provide specific binding and these values are recalculated in terms of pmol ligand bound per mg protein. Saturation curves are constructed and dissociation constants are calculated using the single site ligand binding model: Beq=(Bmax*X)/(X+Kd), where Beq is the amount of ligand bound at equilibrium, Bmax is the maximum receptor density, Kd is the dissociation constant for the ligand, and X is the free ligand concentration. For competition studies percent inhibition is determined and IC50 values are calculated using a 4 parameter logistic model (% inhibition=(A+((B−A)/(1+((x/C)^D)))) using XLfit, where A and B are the maximal and minimum inhibition respectively, C is the IC50 concentration and D is the (Hill) slope.
Example 93B. Tritiated Compound Binding to Membranes Isolated from Cells that Heterologous Express hNav1.7 and the β1 Subunit
Following the procedure described in Example 93A, and making modifications as required to: centrifuge supernatants at 100000×g instead of 10000×g; re-suspend pellets in a buffer containing 0.01% BSA in addition to 100 mM NaCl, 20 mM Tris HCl, pH 7.4 buffer, and 1% v/v proteasome inhibitors; and storing membranes at −80° C. in single use aliquots instead of pooled. […]
Target sequence in this assay (Q15858 whole entry, looked up): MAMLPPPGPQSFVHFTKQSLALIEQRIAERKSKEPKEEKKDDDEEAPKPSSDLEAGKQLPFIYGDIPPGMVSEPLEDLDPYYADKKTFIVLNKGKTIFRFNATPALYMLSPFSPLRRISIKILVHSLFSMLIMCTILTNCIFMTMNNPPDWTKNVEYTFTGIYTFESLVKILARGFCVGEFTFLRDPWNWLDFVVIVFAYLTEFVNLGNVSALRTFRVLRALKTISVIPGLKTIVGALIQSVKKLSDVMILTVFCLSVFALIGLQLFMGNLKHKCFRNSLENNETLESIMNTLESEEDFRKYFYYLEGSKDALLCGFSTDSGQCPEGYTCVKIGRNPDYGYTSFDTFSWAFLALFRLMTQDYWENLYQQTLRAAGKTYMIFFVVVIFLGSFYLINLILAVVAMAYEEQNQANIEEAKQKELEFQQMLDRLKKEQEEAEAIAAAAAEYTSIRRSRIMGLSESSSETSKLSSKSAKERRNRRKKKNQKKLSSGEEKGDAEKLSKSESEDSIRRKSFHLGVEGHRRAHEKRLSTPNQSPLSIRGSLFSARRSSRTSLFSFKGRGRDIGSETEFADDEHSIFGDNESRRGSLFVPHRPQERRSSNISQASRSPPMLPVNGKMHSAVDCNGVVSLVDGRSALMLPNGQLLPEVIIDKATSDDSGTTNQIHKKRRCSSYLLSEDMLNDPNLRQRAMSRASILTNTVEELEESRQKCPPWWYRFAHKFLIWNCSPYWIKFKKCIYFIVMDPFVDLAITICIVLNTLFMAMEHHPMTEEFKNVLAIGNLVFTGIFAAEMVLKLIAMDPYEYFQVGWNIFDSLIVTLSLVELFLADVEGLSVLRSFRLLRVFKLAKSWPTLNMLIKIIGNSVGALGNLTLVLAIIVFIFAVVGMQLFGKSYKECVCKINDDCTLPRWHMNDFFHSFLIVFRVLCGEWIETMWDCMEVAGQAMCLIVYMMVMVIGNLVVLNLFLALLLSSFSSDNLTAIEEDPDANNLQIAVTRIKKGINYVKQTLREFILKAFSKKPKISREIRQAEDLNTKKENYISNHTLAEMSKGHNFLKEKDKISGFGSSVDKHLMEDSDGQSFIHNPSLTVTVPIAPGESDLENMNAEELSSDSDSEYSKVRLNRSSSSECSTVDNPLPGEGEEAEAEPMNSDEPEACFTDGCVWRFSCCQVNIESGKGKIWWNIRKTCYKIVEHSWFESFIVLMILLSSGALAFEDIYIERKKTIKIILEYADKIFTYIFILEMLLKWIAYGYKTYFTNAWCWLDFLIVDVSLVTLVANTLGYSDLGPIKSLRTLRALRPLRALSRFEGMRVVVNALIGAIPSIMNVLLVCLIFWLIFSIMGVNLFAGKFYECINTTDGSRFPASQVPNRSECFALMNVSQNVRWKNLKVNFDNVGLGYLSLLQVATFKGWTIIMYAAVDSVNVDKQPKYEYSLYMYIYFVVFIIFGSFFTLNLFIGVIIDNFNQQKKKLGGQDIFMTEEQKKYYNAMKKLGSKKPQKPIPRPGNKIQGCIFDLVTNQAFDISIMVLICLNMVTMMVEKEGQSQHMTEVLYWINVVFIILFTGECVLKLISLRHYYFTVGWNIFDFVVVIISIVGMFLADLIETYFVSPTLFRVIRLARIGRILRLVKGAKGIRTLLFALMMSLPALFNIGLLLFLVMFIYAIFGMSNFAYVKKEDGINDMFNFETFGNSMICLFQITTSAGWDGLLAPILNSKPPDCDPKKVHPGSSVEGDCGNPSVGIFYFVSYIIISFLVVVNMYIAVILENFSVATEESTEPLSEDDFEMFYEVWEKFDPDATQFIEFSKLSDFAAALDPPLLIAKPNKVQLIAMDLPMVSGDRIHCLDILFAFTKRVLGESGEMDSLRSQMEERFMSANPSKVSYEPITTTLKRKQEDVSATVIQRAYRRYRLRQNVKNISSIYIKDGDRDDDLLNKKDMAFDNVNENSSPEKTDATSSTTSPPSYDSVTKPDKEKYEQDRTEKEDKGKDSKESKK
Target sequence in this assay (Q07699 whole entry partner, looked up): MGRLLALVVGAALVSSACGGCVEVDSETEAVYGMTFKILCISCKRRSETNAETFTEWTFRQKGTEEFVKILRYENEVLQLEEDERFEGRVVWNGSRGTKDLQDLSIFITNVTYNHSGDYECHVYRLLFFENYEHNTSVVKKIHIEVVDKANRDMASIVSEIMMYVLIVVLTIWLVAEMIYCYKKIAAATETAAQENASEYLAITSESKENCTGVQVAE

The target of assay [2] is T1, hNav1.7. Put plainly: Electrophysiological assay (EP), voltage clamp on Syncropatch 384PE, CHO cells stably expressing Nav1.7. The assay is classed as cell-based. The settings on record: holding potential −50 mV, 7.5 min compound incubation, read-out: EP_SP hNav1.7 EVO IC50. The source says:
Example 93C. Electrophysiological Assay (EP) (In Vitro Assay)
Patch voltage clamp electrophysiology allows for the direct measurement and quantification of block of voltage-gated sodium channels (NaV's), and allows the determination of the time- and voltage-dependence of block which has been interpreted as differential binding to the resting, open, and inactivated states of the sodium channel (Hille, B., Journal of General Physiology (1977), 69: 497-515).
The following voltage clamp electrophysiology studies are performed on representative compounds using cells heterologously expressing Nav1.7 or Nav1.5 channels. cDNAsfor Nav1.7 (NM_002977) and Nav1.5 (AC137587) are stably expressed in Chinese Hamstr Ovary (CHO) cells and CHL (Chinese Hamster Lung) cells respectively. Sodium currents are measured in the whole-cell configuration using Syncropatch 384PE (Nanlon Technologies, Germany). 1NPC®-384 chips with custom medium resistance and single hole mode are used. Internal solution consists of (in mM): […], 10 […], 20 EGTA, and 10 Hepes (pH adjusted to 7.2); and external solution contains (in mM): 60 NMDG, 80 NaCl, 4 KCl, 1 MgCl2, 2 CaCl2, 2 D-Glucose monohydrate, 10 Hepes (pH adjusted to 7.4 with NaOH).
After system flushing, testing compounds are dissolved in external solution containing 0.1% Pluronic F-127. The chip is moved into the measuring head and the instrument primes the chip with external and internal solutions. 10 μl cells are added to the chip from a cell hotel, and a negative pressure of −50 mBar is applied to form a seal. Following treatment with seal enhancer solution and wash-off with external solution, negative pressure of −250 mbar is applied for 1 second to achieve the whole-cell configuration, followed by three washing steps in external solution. 20 μl of compounds is added to 40 μl in each well (1:3 dilution of compounds), and after mixing, 20 μl is removed so the volume is retained at 40 μl. After approximately 13 minutes recordings, 20 μl/well of 2 uM TTX, or 333 uM Tetracaine (for Nav1.5) is added to achieve full block.
For voltage protocol, an holding potential of −50 mV is applied during the whole experiment. A depolarizing step is applied to −10 mV for 10 ms, followed by a hyperpolarization step to −150 mV for 20 ms to allow channel recovery from inactivation. A second depolarizing step is applied from −150 mV to −10 mV for 10 ms, where currents are measured to derive blocking effects of compounds. Inhibition is determined based on 7.5 min of compound incubation.
Target sequence in this assay (Q15858 other isoform, or with tags, fused parts or gaps): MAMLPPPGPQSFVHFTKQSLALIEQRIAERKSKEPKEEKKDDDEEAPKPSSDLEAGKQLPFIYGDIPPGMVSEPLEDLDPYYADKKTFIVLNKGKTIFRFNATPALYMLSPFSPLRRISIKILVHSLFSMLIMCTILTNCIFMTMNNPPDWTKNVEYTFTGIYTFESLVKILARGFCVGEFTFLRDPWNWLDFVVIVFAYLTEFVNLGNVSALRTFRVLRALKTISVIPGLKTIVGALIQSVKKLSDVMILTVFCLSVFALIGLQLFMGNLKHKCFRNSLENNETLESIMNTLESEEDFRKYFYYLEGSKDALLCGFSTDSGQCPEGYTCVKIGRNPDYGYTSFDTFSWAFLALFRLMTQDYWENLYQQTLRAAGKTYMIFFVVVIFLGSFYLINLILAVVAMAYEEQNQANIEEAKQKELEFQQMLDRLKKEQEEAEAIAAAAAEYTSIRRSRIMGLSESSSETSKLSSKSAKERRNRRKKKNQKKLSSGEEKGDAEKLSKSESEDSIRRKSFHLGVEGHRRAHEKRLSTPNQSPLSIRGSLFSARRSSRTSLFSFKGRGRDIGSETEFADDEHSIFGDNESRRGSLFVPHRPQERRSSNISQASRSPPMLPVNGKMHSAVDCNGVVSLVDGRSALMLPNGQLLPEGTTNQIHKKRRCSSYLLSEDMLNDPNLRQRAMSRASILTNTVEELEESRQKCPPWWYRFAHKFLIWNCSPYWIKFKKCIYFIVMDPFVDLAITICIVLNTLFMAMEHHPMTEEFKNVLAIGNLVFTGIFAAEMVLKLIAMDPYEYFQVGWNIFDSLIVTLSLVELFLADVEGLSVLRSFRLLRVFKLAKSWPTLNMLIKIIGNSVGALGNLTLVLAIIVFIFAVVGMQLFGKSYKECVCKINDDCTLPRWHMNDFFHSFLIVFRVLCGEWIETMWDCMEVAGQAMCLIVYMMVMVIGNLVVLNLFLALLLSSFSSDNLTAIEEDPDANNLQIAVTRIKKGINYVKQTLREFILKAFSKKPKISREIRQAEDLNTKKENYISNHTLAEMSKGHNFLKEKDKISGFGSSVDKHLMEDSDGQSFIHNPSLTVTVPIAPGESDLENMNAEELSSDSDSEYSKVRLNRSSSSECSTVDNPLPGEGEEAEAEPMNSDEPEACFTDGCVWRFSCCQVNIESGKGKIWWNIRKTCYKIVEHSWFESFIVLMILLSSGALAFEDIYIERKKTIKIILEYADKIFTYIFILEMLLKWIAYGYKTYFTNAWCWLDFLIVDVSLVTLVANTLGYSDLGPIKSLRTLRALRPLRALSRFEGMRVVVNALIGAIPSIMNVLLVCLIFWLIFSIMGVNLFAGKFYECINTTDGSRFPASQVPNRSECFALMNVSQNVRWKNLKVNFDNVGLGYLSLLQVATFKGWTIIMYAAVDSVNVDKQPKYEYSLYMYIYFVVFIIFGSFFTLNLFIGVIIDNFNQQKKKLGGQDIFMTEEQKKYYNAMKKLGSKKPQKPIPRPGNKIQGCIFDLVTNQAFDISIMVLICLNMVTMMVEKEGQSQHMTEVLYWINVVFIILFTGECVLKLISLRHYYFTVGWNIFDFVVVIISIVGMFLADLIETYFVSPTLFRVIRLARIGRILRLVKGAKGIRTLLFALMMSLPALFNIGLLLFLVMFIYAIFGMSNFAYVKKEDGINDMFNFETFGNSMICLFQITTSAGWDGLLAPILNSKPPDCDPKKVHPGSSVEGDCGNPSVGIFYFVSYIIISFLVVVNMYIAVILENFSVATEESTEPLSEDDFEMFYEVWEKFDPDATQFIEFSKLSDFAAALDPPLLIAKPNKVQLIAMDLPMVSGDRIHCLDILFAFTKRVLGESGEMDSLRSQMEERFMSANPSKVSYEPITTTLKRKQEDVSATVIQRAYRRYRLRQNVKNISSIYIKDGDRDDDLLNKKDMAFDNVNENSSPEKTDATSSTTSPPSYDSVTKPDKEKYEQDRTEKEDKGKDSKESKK
A general note: In patch-clamp work, channel activity is measured electrically.

For the molecule `CN(C)[C@H]1C[C@@H](c2cccc(C(F)(F)F)c2)CC[C@@H]1Oc1ccc(S(=O)(=O)Nc2ccncn2)c(F)c1` [Example 57, 4-(((1S,2S,4S)-2-(Dimethylamino)-4-(3-(trifluoromethyl)phenyl)cyclohexyl)oxy)-2-fluoro-N-(pyrimidin-4-yl)benzenesulfonamide formate], the IC50 was 35.3 nM on hNav1.7 [1] and 2.59 nM on hNav1.7 [2].

`CN(C)[C@H]1C[C@@H](c2ccc(Cl)c(Cl)c2)CC[C@@H]1Oc1cc(F)c(S(=O)(=O)Nc2ccncn2)cc1Cl` [Example 67, 5-chloro-4-(((1S,2S,4S)-4-(3,4-dichlorophenyl)-2-(dimethylamino)cyclohexyl)oxy)-2-fluoro-N-(pyrimidin-4-yl)benzenesulfonamide formate]: the IC50 stood at 3.83 nM at hNav1.7 [1] and 0.325 nM at hNav1.7 [2].

In the case of `CN(C)[C@H]1C[C@@H](c2cccc(C(F)(F)F)c2)CC[C@@H]1N1CCCc2cc(S(=O)(=O)Nc3ccncn3)c(F)cc21` [Example 54, 1-((1S,2S,4S)-2-(Dimethylamino)-4-(3-(trifluoromethyl)phenyl)cyclohexyl)-7-fluoro-N-(pyrimidin-4-yl)-1,2,3,4-tetrahydroquinoline-6-sulfonamide], the IC50 was determined as 0.604 nM on hNav1.7 [1] and 1.41 nM on hNav1.7 [2].

In the case of `O=S(=O)(Nc1ccncn1)c1cc2c(cc1F)N([C@H]1CC[C@H](c3cccc(C(F)(F)F)c3)C[C@@H]1N1CCCC1)CCO2` [Example 47, 6-Fluoro-N-(pyrimidin-4-yl)-4-((1S,2S,4S)-2-(pyrrolidin-1-yl)-4-(3-(trifluoromethyl)phenyl)-cyclohexyl)-3,4-dihydro-2H-benzo[b][1,4]oxazine-7-sulfonamide], the 50% inhibitory concentration (IC50) at hNav1.7 [1] is 0.794 nM; on hNav1.7 [2], 1.16 nM.

Consider `CN(C)[C@H]1C[C@@H](c2cc(F)cc(C(F)(F)F)c2)CC[C@@H]1Nc1cc(F)c(S(=O)(=O)Nc2ccncn2)cc1Cl` [Example 15, 5-Chloro-4-[[(1S,2S,4S)-2-(dimethylamino)-4-[3-fluoro-5-(trifluoromethyl)phenyl]-cyclohexyl]amino]-2-fluoro-N-pyrimidin-4-yl-benzenesulfonamide formic acid], for which the IC50 at hNav1.7 [1] was 0.886 nM; at hNav1.7 [2], 0.61 nM.

Turning to `CN(C)[C@H]1C[C@@H](c2cccc(C(C)(F)F)c2)CC[C@@H]1Oc1cc(F)c(S(=O)(=O)Nc2ccncn2)cc1Cl` [Example 91, 5-chloro-4-(((1S,2S,4S)-4-(3-(1,1-difluoroethyl)phenyl)-2-(dimethylamino)cyclohexyl)oxy)-2-fluoro-N-(pyrimidin-4-yl)benzenesulfonamide], the concentration for half-maximal inhibition (IC50) at hNav1.7 [1] was 6.13 nM; on hNav1.7 [2], 1.2 nM.

Take `CN(C)[C@H]1C[C@@H](c2cccc(-c3ccnn3C)c2)CC[C@@H]1Nc1cc(F)c(S(=O)(=O)Nc2ccncn2)cc1Cl` [Example 21, 5-Chloro-4-(((1S,2S,4S)-2-(dimethylamino)-4-(3-(1-methyl-1H-pyrazol-5-yl)phenyl)-cyclohexyl)amino)-2-fluoro-N-(pyrimidin-4-yl)benzenesulfonamide]: the IC50 at hNav1.7 [1] came to 12.9 nM; at hNav1.7 [2], 8.03 nM.

`CN(C)[C@H]1C[C@@H](c2ccnc(C(F)(F)F)c2)CC[C@@H]1Oc1cc(F)c(S(=O)(=O)Nc2ccncn2)cc1Cl` [Example 76, 5-chloro-4-(((1S,2S,4S)-2-(dimethylamino)-4-(2-(trifluoromethyl)pyridin-4-yl)cyclohexyl)oxy)-2-fluoro-N-(pyrimidin-4-yl)benzenesulfonamide formate]: the figures for the IC50 at hNav1.7 [1] and on hNav1.7 [2] were 78.8 nM and 8.61 nM, respectively.

With `CN(C)[C@H]1CN(c2cc(C(F)(F)F)ccn2)CC[C@@H]1Nc1cc(F)c(S(=O)(=O)Nc2ccncn2)cc1Cl` [Example 71, 5-Chloro-4-(((3S,4S)-3-(dimethylamino)-1-(4-(trifluoromethyl)pyridin-2-yl)piperidin-4-yl)amino)-2-fluoro-N-(pyrimidin-4-yl)benzenesulfonamide formate], the values for the IC50 on hNav1.7 [1] and on hNav1.7 [2] were 169 nM and 7.04 nM, respectively.

Turning to `CN(C)[C@H]1C[C@@H](c2cccc(C(F)(F)F)c2)CC[C@@H]1n1c(=O)oc2cc(S(=O)(=O)Nc3ccncn3)c(F)cc21` [Example 3, 3-((1S,2S,4S)-2-(Dimethylamino)-4-(3-(trifluoromethyl)phenyl)cyclohexyl)-5-fluoro-2-oxo-N-(pyrimidin-4-yl)-2,3-dihydrobenzo[d]oxazole-6-sulfonamide formate], the IC50 was found to be 83.1 nM on hNav1.7 [1] and 26.2 nM on hNav1.7 [2].

With `CN(C)[C@H]1C[C@@H](c2cccc(C3COC3)c2)CC[C@@H]1Nc1cc(F)c(S(=O)(=O)Nc2ccncn2)cc1Cl` [Example 44, 5-chloro-4-(((1S,2S,4S)-2-(dimethylamino)-4-(3-(oxetan-3-yl)phenyl)cyclohexyl)amino)-2-fluoro-N-(pyrimidin-4-yl)benzenesulfonamide], the IC50 on hNav1.7 [1] turned out to be 45.8 nM; on hNav1.7 [2], 9.11 nM.

With `CN(C)[C@H]1C[C@](O)(c2cccc(C(F)(F)F)c2)CC[C@@H]1Nc1cc(F)c(S(=O)(=O)Nc2ccncn2)cc1Cl` (single isomer, unassigned) [Example 37], the results for the IC50 at hNav1.7 [1] and on hNav1.7 [2] were at least 2000 nM and 371 nM, respectively.

Turning to “5-Chloro-4-(((1S,3R,4R,6R)-7,7-dichloro-4-(dimethylamino)-6-(3-(trifluoromethyl)-phenyl)bicyclo[4.1.0]heptan-3-yl)amino)-2-fluoro-N-(pyrimidin-4-yl)benzenesulfonamide [Example 53]”, the figures for the IC50 at hNav1.7 [1] and on hNav1.7 [2] were 46.2 nM and 1.86 nM, respectively.

`O=S(=O)(Nc1ccncn1)c1cc(F)c(N[C@H]2CC[C@H](c3cccc(C(F)(F)F)c3)C[C@@H]2N2CCCCC2)cc1F` [Example 62, 2,5-difluoro-4-(((1S,2S,4S)-2-(piperidin-1-yl)-4-(3-(trifluoromethyl)phenyl)cyclohexyl)-amino)-N-(pyrimidin-4-yl)benzenesulfonamide formate]: the 50% inhibitory concentration (IC50) was found to be 0.816 nM at hNav1.7 [1] and 0.628 nM on hNav1.7 [2].
